The target of data set [1] is T1, CYP17A1 (Homo sapiens, UniProt P05093).
T1 sequence (P05093 1-508): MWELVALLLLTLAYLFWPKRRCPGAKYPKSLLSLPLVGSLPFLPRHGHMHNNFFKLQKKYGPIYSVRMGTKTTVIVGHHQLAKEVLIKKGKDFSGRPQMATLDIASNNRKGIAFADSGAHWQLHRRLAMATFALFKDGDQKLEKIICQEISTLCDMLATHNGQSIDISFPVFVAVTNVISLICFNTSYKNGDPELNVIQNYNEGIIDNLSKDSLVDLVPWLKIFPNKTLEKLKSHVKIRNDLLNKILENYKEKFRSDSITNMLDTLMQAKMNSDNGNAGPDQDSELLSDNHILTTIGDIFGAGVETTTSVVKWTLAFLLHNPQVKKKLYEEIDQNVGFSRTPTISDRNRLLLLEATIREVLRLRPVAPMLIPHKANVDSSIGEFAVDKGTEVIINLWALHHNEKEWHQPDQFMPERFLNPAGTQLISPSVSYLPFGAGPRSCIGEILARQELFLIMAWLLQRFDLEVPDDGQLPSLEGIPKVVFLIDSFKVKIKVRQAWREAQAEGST
The following applies: cited from earlier work; for pIC50: −log IC50 (M), converted from literature IC50; for IC50: literature value, no unit in the table, nM.

The target of data set [2] is T1, CYP17A1. Kind of data set: CYP17A1 inhibition (CYP17A1 bactosomes, progesterone substrate, LC-MS/MS). Conditions: for inhibitory potency of CYP17A1 (in words): summary of Table 2; for IC50: 20 pmol/ml bactosomes, 0.1 μM progesterone, 50 μM to 50 nM. Set-up: purchased Cypex, Dundee, UK; host or cells: bacterial membranes (bactosomes). The class given is biochemical.
Experimental: CYP17A1 inhibition was measured using 20 pmol/ml CYP17A1 bactosomes (Cypex, Dundee, UK) and 0.1 μM progesterone as a substrate and 1 mM NADPH in 50 mM potassium phosphate buffer pH 7.4 containing 5 mM magnesium chloride. Inhibitors were dissolved in DMSO and serially diluted in seven ½ log steps, final concentrations ranging from 50 μM to 50 nM. Reaction volume was 100 μl and final DMSO concentration was 1% (v/v). Reactions were started by the addition of NADPH and incubated at 37° C. for 20 minutes with shaking at 1800 rpm on a Bioshake IQ (Q-Instruments, Jena, Germany). Reactions were terminated by the addition of 200 μl methanol containing 1 μM tolbutamide as an internal standard.

For another data set, the target named is T2, CYP1A2 (Homo sapiens, UniProt P05177).
T2 construct: purchased Cypex, Dundee CYP/XG001, Batch XG001001; host or cells: E. coli
T2 sequence (P05177 1-516): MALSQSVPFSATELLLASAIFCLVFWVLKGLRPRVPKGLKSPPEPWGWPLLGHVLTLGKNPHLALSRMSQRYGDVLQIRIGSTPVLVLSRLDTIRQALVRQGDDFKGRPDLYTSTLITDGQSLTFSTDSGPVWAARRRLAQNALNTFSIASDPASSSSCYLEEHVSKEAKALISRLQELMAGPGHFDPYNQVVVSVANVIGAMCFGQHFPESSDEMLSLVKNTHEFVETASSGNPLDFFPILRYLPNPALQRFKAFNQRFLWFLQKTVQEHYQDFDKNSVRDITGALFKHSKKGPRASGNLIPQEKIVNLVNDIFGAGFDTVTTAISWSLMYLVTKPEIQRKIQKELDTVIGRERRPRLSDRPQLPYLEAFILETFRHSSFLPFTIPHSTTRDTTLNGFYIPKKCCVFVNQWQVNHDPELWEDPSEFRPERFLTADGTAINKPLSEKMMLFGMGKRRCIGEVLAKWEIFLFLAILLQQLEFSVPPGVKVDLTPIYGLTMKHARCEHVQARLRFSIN
Kind of data set: CYP inhibition, 5 CYP bactosome mix: CYP1A2 (tacrine). The class given is in vitro ADME. Conditions: tacrine 0.5 μM.

The target of another data set is T3, CYP2C9 (Homo sapiens, UniProt P11712).
T3 construct: purchased Cypex, Dundee CYP/XG001, Batch XG001001; host or cells: E. coli
The data set can be described thus: CYP inhibition, 5 CYP bactosome mix: CYP2C9 (diclofenac). The class given is in vitro ADME. The following applies: diclofenac 2 μM.

Another data set has as its target T4, CYP2C19 (Homo sapiens, UniProt P33261).
T4 construct: purchased Cypex, Dundee CYP/XG001, Batch XG001001; host or cells: E. coli
The data set can be described thus: CYP inhibition, 5 CYP bactosome mix: CYP2C19 ((S)-mephenytoin). The following applies: (S)-mephenytoin 40 μM. The class given is in vitro ADME.

For the next data set, the target named is T5, CYP2D6 (Homo sapiens, UniProt P10635).
T5 construct: purchased Cypex, Dundee CYP/XG001, Batch XG001001; host or cells: E. coli
Kind of data set: CYP inhibition, 5 CYP bactosome mix: CYP2D6 (bufuralol). The class given is in vitro ADME. Conditions: bufuralol 10 μM.

A further data set addresses T6, CYP3A4 (Homo sapiens, UniProt P08684).
T6 construct: purchased Cypex, Dundee CYP/XG001, Batch XG001001; host or cells: E. coli
Kind of data set: CYP inhibition, 5 CYP bactosome mix: CYP3A4 (midazolam). The class given is in vitro ADME. The following applies: midazolam 2.5 μM.

Data set [3] deals with CYP1A2, CYP2C9, CYP2C19, CYP2D6, and CYP3A4. Kind of data set: CYP inhibition against major 5 human liver CYPs (panel, summary in words). The class given is in vitro ADME. Conditions: drug-drug interaction remark.
For another data set, the target named is T7, CYP19A1 (Homo sapiens, UniProt P11511).
T7 sequence (P11511 1-503): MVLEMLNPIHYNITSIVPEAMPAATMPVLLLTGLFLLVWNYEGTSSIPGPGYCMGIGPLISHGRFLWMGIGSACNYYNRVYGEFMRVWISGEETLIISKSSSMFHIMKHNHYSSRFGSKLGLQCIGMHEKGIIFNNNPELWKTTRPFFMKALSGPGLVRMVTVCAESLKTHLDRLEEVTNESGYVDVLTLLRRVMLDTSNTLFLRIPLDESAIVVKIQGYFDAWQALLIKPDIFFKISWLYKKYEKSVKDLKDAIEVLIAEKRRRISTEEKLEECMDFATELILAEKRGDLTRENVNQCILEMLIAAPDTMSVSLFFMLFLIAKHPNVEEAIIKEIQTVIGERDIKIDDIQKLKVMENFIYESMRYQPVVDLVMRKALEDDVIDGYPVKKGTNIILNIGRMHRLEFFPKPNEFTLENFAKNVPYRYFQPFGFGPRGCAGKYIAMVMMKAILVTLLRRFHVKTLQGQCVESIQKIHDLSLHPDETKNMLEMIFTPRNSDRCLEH
Kind of data set: CYP19A1 inhibition (CYP19/MFC High Throughput Inhibitor Screen Kit, fluorescence). Conditions: 7.5 pmol/ml CYP19A1, 25 μM MFC; top concentration 50 μM (acetonitrile) or 25 μM (DMSO); read-out: CYP19A1 IC50. The class given is biochemical. As for the experimental part: Test compounds and control inhibitors were prepared as stocks in either Acetonitrile or DMSO from the solid compound. Compounds were serially diluted in ½ log steps in the same solvent.
CYP19A1 inhibition experiments were performed using the CYP19/MFC High Throughput Inhibitor Screen Kit (Corning).
CYP19A1 reactions were performed in black 96 well-plates (Greiner) according to the manufacturer's instructions. […] Final organic solvent concentrations were either 4% (v/v) acetonitrile or 0.5% (v/v) Dimethyl sulfoxide. The plates were covered with self-adhesive film lids and incubated for 10 minutes at 37° C. Reactions were terminated by the addition of 75 μl Stop Solution (100 mM Tris base in acetonitrile: MilliQ water (80:20).
Fluorescence of 7-Hydroxy-4-trifluoromethylcoumarin (HFC) was measured on a SpectraMax® i3x (Molecular Devices) using 409 nm and 530 nm as excitation and emission wavelengths, respectively.
The CYP activities for each test compound/positive control inhibitor at each concentration were converted to % of control activity (CA). The LC-MS/MS peak responses (CYP metabolite peak area/internal standard peak area) for each test compound or positive control inhibitor were used and the response for each sample was expressed as a percentage of an uninhibited control (DMSO incubation). The data were then expressed as (log(CA/100-CA) and used to generate a pseudo-Hill plot, the slope and y axis intercept are used to calculate the IC50-value according to the following equation.

Where two headings read alike, the source gives them in different places.

T5 sequence (P10635 whole entry): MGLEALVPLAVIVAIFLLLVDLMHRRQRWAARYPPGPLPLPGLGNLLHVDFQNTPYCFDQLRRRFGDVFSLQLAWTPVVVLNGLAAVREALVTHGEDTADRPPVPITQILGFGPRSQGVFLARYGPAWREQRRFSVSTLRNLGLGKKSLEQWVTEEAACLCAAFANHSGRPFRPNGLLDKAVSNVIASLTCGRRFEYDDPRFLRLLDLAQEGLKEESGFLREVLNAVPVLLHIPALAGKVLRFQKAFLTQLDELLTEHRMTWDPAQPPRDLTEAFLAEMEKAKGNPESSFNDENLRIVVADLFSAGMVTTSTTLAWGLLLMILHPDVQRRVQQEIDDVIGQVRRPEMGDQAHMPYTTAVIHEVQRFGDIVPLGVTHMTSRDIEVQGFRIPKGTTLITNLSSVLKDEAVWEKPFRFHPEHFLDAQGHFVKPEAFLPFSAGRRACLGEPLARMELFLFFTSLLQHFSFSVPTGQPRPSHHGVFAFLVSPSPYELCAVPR
T6 sequence (P08684 whole entry): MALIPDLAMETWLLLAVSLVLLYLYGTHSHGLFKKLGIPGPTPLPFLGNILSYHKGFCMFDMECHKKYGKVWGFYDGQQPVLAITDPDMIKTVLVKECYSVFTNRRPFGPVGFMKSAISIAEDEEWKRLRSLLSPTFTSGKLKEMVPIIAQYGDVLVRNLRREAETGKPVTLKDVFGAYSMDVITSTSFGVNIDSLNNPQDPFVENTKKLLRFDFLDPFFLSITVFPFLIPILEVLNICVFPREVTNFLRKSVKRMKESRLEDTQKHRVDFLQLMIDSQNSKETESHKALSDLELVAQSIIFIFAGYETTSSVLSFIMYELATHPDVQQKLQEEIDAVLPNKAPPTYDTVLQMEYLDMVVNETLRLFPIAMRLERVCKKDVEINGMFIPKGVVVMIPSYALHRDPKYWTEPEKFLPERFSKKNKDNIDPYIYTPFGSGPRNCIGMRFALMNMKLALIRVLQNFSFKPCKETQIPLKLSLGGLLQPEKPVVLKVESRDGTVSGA
T4 sequence (P33261 whole entry): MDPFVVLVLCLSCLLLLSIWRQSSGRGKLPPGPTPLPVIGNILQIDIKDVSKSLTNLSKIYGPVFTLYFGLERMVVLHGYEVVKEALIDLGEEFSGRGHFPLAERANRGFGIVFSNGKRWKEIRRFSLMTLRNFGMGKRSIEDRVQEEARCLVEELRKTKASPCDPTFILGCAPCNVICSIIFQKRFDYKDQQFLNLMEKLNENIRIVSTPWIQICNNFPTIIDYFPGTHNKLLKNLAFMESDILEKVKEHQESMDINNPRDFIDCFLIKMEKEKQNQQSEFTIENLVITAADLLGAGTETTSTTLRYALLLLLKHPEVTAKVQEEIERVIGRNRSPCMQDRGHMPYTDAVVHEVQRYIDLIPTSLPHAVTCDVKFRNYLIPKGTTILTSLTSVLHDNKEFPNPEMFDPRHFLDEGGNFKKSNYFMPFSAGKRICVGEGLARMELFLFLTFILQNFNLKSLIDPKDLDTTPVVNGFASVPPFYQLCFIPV
T3 sequence (P11712 whole entry): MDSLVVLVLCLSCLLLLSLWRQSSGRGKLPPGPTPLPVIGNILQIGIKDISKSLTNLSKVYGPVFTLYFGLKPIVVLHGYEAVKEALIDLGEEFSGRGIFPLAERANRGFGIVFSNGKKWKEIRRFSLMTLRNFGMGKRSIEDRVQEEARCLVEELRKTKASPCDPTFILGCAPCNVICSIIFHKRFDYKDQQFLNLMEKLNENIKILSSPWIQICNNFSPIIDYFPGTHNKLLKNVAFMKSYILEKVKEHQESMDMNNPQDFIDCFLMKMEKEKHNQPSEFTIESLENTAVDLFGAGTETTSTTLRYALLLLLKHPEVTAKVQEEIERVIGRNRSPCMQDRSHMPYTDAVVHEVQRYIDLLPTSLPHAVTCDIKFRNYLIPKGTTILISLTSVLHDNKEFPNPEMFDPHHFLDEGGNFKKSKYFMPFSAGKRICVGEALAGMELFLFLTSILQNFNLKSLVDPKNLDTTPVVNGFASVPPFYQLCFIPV

As to `O=C(NC1CC1)c1ccc2cc(C3(O)CCn4cncc43)ccc2c1` (racemic) [5bx [7]], at CYP17A1 [1], the pIC50 is recorded as 6.600.
As for `CCCC(=O)Nc1ccc(C(=O)C(C)OC(=O)c2n[nH]c3ccccc23)cc1` (racemic) [Compound 6, 1-(4-butanamidophenyl)-1-oxopropan-2-yl-1H-indazole-3-carboxylate], the “inhibitory potency of CYP17A1 (in words)” value against CYP17A1 [2] is recorded as “micromolar levels”.
With `CNC(=O)c1ccc2cc(C(O)(c3cnc[nH]3)C(C)C)ccc2c1` (stereo not shown) [1 [11], 6-[1-Hydroxy-1-isopropyl(1H-imidazol-5-yl)methyl]-Nmethylnaphthalene-2-carboxamide], the pIC50 at CYP17A1 [1] is 7.800.
In the case of `Brc1ccc(Cc2ccncc2)cc1` [3g [11]], the negative logarithm of the IC50 (pIC50) at CYP17A1 [1] was 6.400.
Consider `COc1ccc(-c2ccc(Cc3ccncc3)cc2)cc1OC` [9a [9], 4-[(3′,4′-Dimethoxybiphenyl-4-yl)methyl]pyridine], for which, at CYP17A1 [1], the IC50 was 52 nM.
For the compound `Cl.Fc1ccc(-c2ccc3c(c2)CCC3c2cccnc2)cc1` (stereo not shown) [15 [13]], the pIC50 at CYP17A1 [1] is reported as 4.700.
Turning to `CCc1ccc(NC(=O)c2cc(C(=O)c3cc(OC)ccc3O)coc2=N)cc1` [Compound 1, N-(4-ethylphenyl)-5-(2-hydroxy-5-methoxybenzoyl)-2-imino-2H-pyran-3-carboxamide], the IC50 is 27.9 µM against CYP1A2; 6.1 µM against CYP2C9; 14.9 µM against CYP2C19; 36.3 µM on CYP2D6; 14.6 µM against CYP3A4; over 50 µM against CYP17A1 [2]. In addition, the “inhibition of metabolic CYP450 isoforms (in words)” value (shortened to “inhibition”) in data set [3] is “inhibit various CYP450 isoforms”. For the same compound, the “inhibitory potency of CYP17A1 (in words)” value on CYP17A1 [2] was “micromolar levels”.
On to `O=C(CSc1nnc(-c2c[nH]c3ccccc23)n1Cc1ccco1)NCc1ccccc1Cl` [Compound 2, N-[(2-chlorophenyl)methyl]-2-({4-[(furan-2-yl)methyl]-5-(1H-indol-3-yl)-4H-1,2,4-triazol-3-yl}sulfanyl)acetamide], for which the IC50 is 4.5 µM against CYP1A2; 1.8 µM against CYP2C9; 3.5 µM against CYP2C19; 8.1 µM against CYP2D6; 1.1 µM on CYP3A4; over 50 µM at CYP17A1 [2]. Besides, the “inhibition” value in data set [3] is on record as “inhibit various CYP450 isoforms”. Further, at CYP17A1 [2], the “inhibitory potency of CYP17A1 (in words)” value is “micromolar levels”.
Take `COC(C)C(=O)Nc1cccc(NC(C(N)=O)c2ccccc2)c1` (stereo not shown) [Compound 5, N-(3-{[carbamoyl(phenyl)methyl]amino}phenyl)-2-methoxypropanamide]: the IC50 at CYP19A1, at CYP1A2, against CYP2C9, against CYP2C19, against CYP2D6 and against CYP3A4 was over 50 µM throughout.
`O=C1COc2cc(NCc3cccc(NC(=O)c4ccccc4Cl)c3)c(Cl)cc2N1` [Compound 7, 2-chloro-N-(3-{[(6-chloro-3-oxo-3,4-dihydro-2H-1,4-benzoxazin-7-yl)amino]methyl}phenyl)benzamide]: the IC50 is over 25 µM on CYP19A1; over 50 µM against CYP1A2; over 50 µM on CYP2C19; over 50 µM against CYP2D6; 0.7 µM against CYP3A4. For the same compound, the “inhibitory potency of CYP17A1 (in words)” value against CYP17A1 [2] is listed as “micromolar levels”.
For `O=C1COc2cc(NCc3cccc(C(=O)Nc4cccnc4)c3)c(O)cc2N1` [Compound 8, 3-{[(6-hydroxy-3-oxo-3,4-dihydro-2H-1,4-benzoxazin-7-yl)amino]methyl}-N-(pyridin-3-yl)benzamide], the IC50 on CYP19A1 is 5.9 µM; against CYP1A2, 2.7 µM; on CYP2C9, 7.9 µM; at CYP2C19, 44.6 µM; on CYP2D6, over 50 µM; against CYP3A4 it was 2.8 µM.
Turning to `O=C(Nc1ccccc1O)c1ccc(Oc2cccc(C(=O)Nc3ccccc3O)c2)cc1` [Compound 9, N-(2-hydroxyphenyl)-4-{3-[(2-hydroxyphenyl)carbamoyl]phenoxy}benzamide], the concentration for half-maximal inhibition (IC50) against CYP1A2, at CYP2C9, on CYP2C19, at CYP2D6, against CYP3A4 and against CYP17A1 [2] was over 50 µM throughout. Moreover, the “inhibitory potency of CYP17A1 (in words)” value against CYP17A1 [2] is recorded as “micromolar levels”.
In the case of `O=C1COc2cc(NCc3cccc(C(=O)Nc4cccnc4)c3)ccc2N1` [Compound 10, 3-{[(3-oxo-3,4-dihydro-2H-1,4-benzoxazin-7-yl)amino]methyl}-N-(pyridin-3-yl)benzamide], the IC50 on CYP19A1 is 5.7 µM; on CYP1A2, 2.1 µM; against CYP2C9 it was over 50 µM; against CYP2C19, over 50 µM; against CYP2D6, over 50 µM; against CYP3A4 it was 6.6 µM. This compound also registered an IC50 at CYP17A1 [2] of over 50 µM. The “inhibitory potency of CYP17A1 (in words)” value against CYP17A1 [2] is listed as “micromolar levels”.
On to `O=C1COc2cc(NCc3cccc(C(=O)Nc4cccnc4)c3)c(Cl)cc2N1` [Compound 13, 3-{[(6-chloro-3-oxo-3,4-dihydro-2H-1,4-benzoxazin-7-yl)amino]methyl}-N-(pyridin-3-yl)benzamide], for which the IC50 is 14.5 µM at CYP19A1; 0.6 µM on CYP1A2; over 50 µM at CYP2C19; over 50 µM at CYP2D6; 1.1 µM against CYP3A4; over 50 µM on CYP17A1 [2]. Also, in data set [3], the “inhibition” value is recorded as “inhibit various CYP450 isoforms”.
As to `COc1cc2ccc([C@](O)(c3c[nH]cn3)C(C)C)cc2cc1OC` [TAK700, [(1S)-1-(6,7-dimethoxy-2-naphthyl)-1-(1H-imidazol-4-yl)-2-methylpropan-1-ol]], at CYP17A1 [1], the IC50 is 28 nM and the pIC50 was 7.550.

One may read the pIC50 as the negative decadic logarithm of the IC50, by convention in mol/L. Broadly, the IC50 is the midpoint of a concentration-inhibition curve.

The record behind these values is patent publication US20200247794A1, “PHARMACOPHORES, COMPOUNDS AND METHODS HAVING APPLICATION IN THE TREATMENT OF CANCER THROUGH INHIBITION OF CYP17A1 AND CYP19A1” (MANGOSUTHU UNIVERSITY OF TECHNOLOGY, priority 2015, published 2020).
